{"source": "patent US10919785B2", "about": "“Hydraulic conveyor of floating objects provided with a device for sanitising conveying composition, plant provided with such a conveyor and sanitising method” (MAF AGROBOTIC, priority 2016, dated 2021)", "key": {"[1]": {"type": "physicochemical", "description": "A hydraulic conveyor of a plant for sorting and packaging apples is selected containing a volume of 90 m^3 of a conveying composition containing “BELLIS” at a concentration of 50 m g/l (and boscalid at a concentration of 22 μg/l). A flow rate of the conveying composition of 36 m^3/h is established in the external circuit using the circulation pump 14 and a flow rate of photoreactive composition of 270 cm^3/h is established using the distribution pump 19, the photoreactive composition being an aqueous solution of hydrogen peroxide at an initial concentration of 400 g/l, i.e. 108 g or pure hydrogen peroxide. Under these conveying composition flow conditions, all of the volume of the conveying composition contained in the plant is theoretically treated within 2.5 hours. The composition to be sanitised obtained at the inlet of the sanitising device thus has an initial hydrogen peroxide proportion in the order of 3 ppm and is sufficient to allow the decontamination of the composition to be sanitised at the outlet of the sanitising device formed of 6 photolysis chambers mounted in series, each chamber comprising five fluorescent tubes with an individual power of 200 W.\nThe results obtained are shown in Table 1 hereinafter in which the concentration values of boscalid in the composition to be sanitised at the inlet of the photolysis tank (EC), at the outlet of the third chamber (S3E) of the photolysis tank and at the outlet of the sixth chamber (S6E) of the photolysis tank are given in μg/l. The column S6E/EC represents the ratio multiplied by 100 of the boscalid concentration at the outlet of the sixth chamber (S6E) of the photolysis tank to the boscalid concentration at the inlet of the photolysis tank (EC). The column C/C0 represents the ratio of the boscalid concentration measured at the inlet of the photolysis tank over time to the initial boscalid concentration (t=0)."}, "[2]": {"type": "physicochemical", "conditions": "250 μg/l", "description": "A semi-industrial pilot device in accordance with one aspect of the invention comprises a tank for recirculating water to be treated of a volume of 1000 l, a circulation pump ensuring a circulation flow of the water to be treated in a sanitising device with a flow rate between 4 m^3 to 8 m^3/h. The sanitising device comprises a photolysis chamber comprising an inlet for water from the recirculation tank and an outlet for sanitised water directed to the recirculation tank. The photolysis chamber is formed of a rigid tubular envelope, of which the external wall is opaque to light and forming an inner space suitable for receiving five fluorescent tubes with a longitudinal axis extending in parallel with the longitudinal axis of the rigid tubular envelope. The inner volume of the decontamination reactor is in the order of […].\nThe five fluorescent tubes are tubes of 200 W emitting light at a wavelength of 254 nm and arranged longitudinally in the tubular envelope at the five points of a regular pentagon and in contact with the water to be treated flowing in the photolysis chamber. In this configuration of the sanitising device, the water to be sanitised flowing in contact with the five fluorescent tubes is subjected to substantially homogeneous illumination in the order of 500 mJ/cm^2 for a circulation flow rate of water to be sanitised in the order of 6 m^3/h. The semi-industrial pilot device also comprises a tank for storing an aqueous solution of hydrogen peroxide (H2O2) provided with a pump for distributing said solution in the circulation flow of water to be sanitised issuing into the circuit of water to be sanitised upstream of and in proximity to the photolysis chamber. The concentration of the hydrogen peroxide in the aqueous solution of hydrogen peroxide is between 2 m g/l and 13 mg/l. The set-point flow rate of the pump for distributing solution of H2O2 is kept at 4 l/h.\nThe flow rate of the recycling pump is 6 m^3/h and the initial boscalid concentration in the recirculation tank is 250 μg/l. The 5 lamps of the sanitising device are switched on. […]"}, "[3]": {"type": "physicochemical", "conditions": "10 min, 25 μg/l", "description": "The semi-industrial pilot device comprises a tank for composition to be treated of a volume of 1000 l, a circulation pump ensuring a flow of composition to be treated in a sanitising device with a flow rate of 6 m^3/h. The sanitising device comprises a single photolysis chamber comprising an inlet for water from the tank of composition to be treated and an outlet for sanitised water directed to the tank of composition to be treated. The composition to be treated comprises boscalid at an initial concentration of 25 μg/l and an initial hydrogen peroxide concentration of 2 mg/l.\nThe photolysis chamber is formed of a rigid tubular envelope, of which the external wall is opaque to light and forming an inner space suitable for receiving five fluorescent tubes with a longitudinal axis extending in parallel with the longitudinal axis of the rigid tubular envelope. The inner volume of the decontamination reactor is in the order of 32 l. The five fluorescent tubes are tubes of 200 W emitting light at a wavelength of 254 nm and arranged longitudinally in the tubular envelope at the five points of a regular pentagon and in contact with the water to be treated flowing in the photolysis chamber.\nAfter 10 minutes of operation of the semi-industrial pilot device, almost all of the composition to be treated has been illuminated in the photolysis chamber. […]"}}, "note": "Like-named read-outs stand apart in the source and are kept apart here."}
{"smiles": "O=C(Nc1ccccc1-c1ccc(Cl)cc1)c1cccnc1Cl", "note": "[boscalid]", "values": [{"measurement": "rate of degradation between the inlet and outlet of the photolysis tank", "setting": "[1]; 22 μg/l", "result": "greater than 90%"}, {"measurement": "boscalid concentration at the inlet of the photolysis tank (EC)", "setting": "[1]; time 0 hours", "result": 21.43, "unit": "µg/L"}, {"measurement": "C/C0 (inlet boscalid concentration over initial concentration)", "setting": "[1]; time 1.25 hours", "result": 0.79}, {"measurement": "S6E/EC", "setting": "[1]; time 1.25 hours", "result": 92, "unit": "%"}, {"measurement": "boscalid concentration at the inlet of the photolysis tank (EC)", "setting": "[1]; time 1.25 hours", "result": 16.64, "unit": "µg/L"}, {"measurement": "boscalid concentration at the outlet of the sixth chamber (S6E)", "setting": "[1]; time 1.25 hours", "result": 1.28, "unit": "µg/L"}, {"measurement": "C/C0 (inlet boscalid concentration over initial concentration)", "setting": "[1]; time 2.5 hours", "result": 0.73}, {"measurement": "S6E/EC", "setting": "[1]; time 2.5 hours", "result": 94, "unit": "%"}, {"measurement": "boscalid concentration at the inlet of the photolysis tank (EC)", "setting": "[1]; time 2.5 hours", "result": 15.68, "unit": "µg/L"}, {"measurement": "boscalid concentration at the outlet of the sixth chamber (S6E)", "setting": "[1]; time 2.5 hours", "result": 0.99, "unit": "µg/L"}, {"measurement": "boscalid concentration at the outlet of the third chamber (S3E)", "setting": "[1]; time 2.5 hours", "result": 3.96, "unit": "µg/L"}, {"measurement": "C/C0 (inlet boscalid concentration over initial concentration)", "setting": "[1]; time 3.75 hours", "result": 0.73}, {"measurement": "S6E/EC", "setting": "[1]; time 3.75 hours", "result": 94, "unit": "%"}, {"measurement": "boscalid concentration at the inlet of the photolysis tank (EC)", "setting": "[1]; time 3.75 hours", "result": 15.56, "unit": "µg/L"}, {"measurement": "boscalid concentration at the outlet of the sixth chamber (S6E)", "setting": "[1]; time 3.75 hours", "result": 0.91, "unit": "µg/L"}, {"measurement": "boscalid concentration at the outlet of the third chamber (S3E)", "setting": "[1]; time 3.75 hours", "result": 3.38, "unit": "µg/L"}, {"measurement": "C/C0 (inlet boscalid concentration over initial concentration)", "setting": "[1]; time 5 hours", "result": 0.66}, {"measurement": "S6E/EC", "setting": "[1]; time 5 hours", "result": 94, "unit": "%"}, {"measurement": "boscalid concentration at the inlet of the photolysis tank (EC)", "setting": "[1]; time 5 hours", "result": 14.06, "unit": "µg/L"}, {"measurement": "boscalid concentration at the outlet of the sixth chamber (S6E)", "setting": "[1]; time 5 hours", "result": 0.56, "unit": "µg/L"}, {"measurement": "boscalid concentration at the outlet of the third chamber (S3E)", "setting": "[1]; time 5 hours", "result": 2.71, "unit": "µg/L"}, {"measurement": "C/C0 (inlet boscalid concentration over initial concentration)", "setting": "[1]; time 7.5 hours", "result": 0.38}, {"measurement": "boscalid concentration at the inlet of the photolysis tank (EC)", "setting": "[1]; time 7.5 hours", "result": 8.25, "unit": "µg/L"}, {"measurement": "boscalid concentration at the outlet of the third chamber (S3E)", "setting": "[1]; time 7.5 hours", "result": 1.78, "unit": "µg/L"}, {"measurement": "elimination from the conveying composition of the hydraulic conveyor", "setting": "[1]; within 7.5 hours", "result": 62, "unit": "%"}, {"measurement": "final rate of degradation", "setting": "[2]", "result": 95, "unit": "%"}, {"measurement": "initial degradation", "setting": "[2]", "result": "equivalent to that obtained with the addition of hydrogen peroxide at the concentration of 13 mg/l"}, {"measurement": "degradation of the initial boscalid", "setting": "[2]; 1 h", "result": 10, "unit": "%"}, {"measurement": "rate of degradation of the initial boscalid", "setting": "[3]", "result": 58, "unit": "%"}]}
